Test results as given in patent US20260174083A1, “FUNGICIDAL MIXTURE COMPRISING SUBSTITUTED PYRIDINES” (BASF SE, priority 2022, published 2026).
Like-named read-outs stand apart in the source and are kept apart here.

What was measured:
Format in all cases: cell-based
Septoria tritici = experiment: Activity against leaf blotch on wheat caused by Septoria tritici (microtiterplate test)
Botrytis cinerea = experiment: Activity against the grey mold Botrytis cinerea in the microtiterplate test
Pyricularia oryzae = experiment: microbe, parasite or virus in culture; details: for Observed efficacy: single active, MTP, 405 nm, 7 days after inoculation
[1] = Zymoseptoria tritici, 168 h, single active, MTP, 405 nm, 7 days after inoculation, read-out: Observed efficacy
[2] = Zymoseptoria tritici, 168 h, single active, 0.016 ppm, MTP, 405 nm, 7 days after inoculation, read-out: Observed efficacy
[3] = Zymoseptoria tritici, 168 h, single active, 0.063 ppm, MTP, 405 nm, 7 days after inoculation, read-out: Observed efficacy
[4] = Zymoseptoria tritici, 168 h, single active, 0.25 ppm, MTP, 405 nm, 7 days after inoculation, read-out: Observed efficacy
[5] = Botrytis cinerea, 168 h, single active, MTP, 405 nm, 7 days after inoculation, read-out: Observed efficacy
[6] = Pyricularia oryzae, 168 h, read-out: Observed efficacy
[7] = Botrytis cinerea, 168 h, single active, 1 ppm, MTP, 405 nm, 7 days after inoculation, read-out: Observed efficacy
[8] = single active, 0.063 ppm, MTP, 405 nm, 7 days after inoculation
[9] = Botrytis cinerea, 168 h, single active, 4 ppm, MTP, 405 nm, 7 days after inoculation, read-out: Observed efficacy

CO/C=C(/C(=O)OC)c1ccccc1Oc1cc(Oc2ccccc2C#N)ncn1 [Azoxystrobin, azoxystrobin, reference compound]
Observed efficacy (Septoria tritici; single active, 0.016 ppm, MTP, 405 nm, 7 days after inoculation): 0%

O=C(Nc1ccccc1-c1ccc(Cl)cc1)c1cccnc1Cl [Boscalid, boscalid, reference compound]
inhibition of growth at 1 ppm (Septoria tritici; [1]): 54%

Cc1cc(C2=N[C@@H](C)[C@H](C)Oc3ccccc32)cnc1C(F)F [Compound 1-1]
inhibition of growth at 0.016 ppm (Septoria tritici; [2]): 0%
inhibition of growth at 0.063 ppm (Septoria tritici; [3]): 0%
inhibition of growth at 0.25 ppm (Septoria tritici; [4]): 26%
inhibition of growth at 0.25 ppm (Botrytis cinerea; [5]): 7%
inhibition of growth at 0.25 ppm (Pyricularia oryzae; [6]): 7%

Cc1cc(C2=N[C@@H](C)C(C)(C)Oc3c(F)cccc32)cnc1C(F)F [Compound 1-2]
inhibition of growth at 0.016 ppm (Septoria tritici; [2]): 0%
inhibition of growth at 0.063 ppm (Septoria tritici; [3]): 0%
inhibition of growth at 0.25 ppm (Septoria tritici; [4]): 13%
inhibition of growth at 0.063 ppm (Botrytis cinerea; Botrytis cinerea, 168 h, single active, 0.063 ppm, MTP, 405 nm, 7 days after inoculation, read-out: Observed efficacy): 11%
inhibition of growth at 0.25 ppm (Botrytis cinerea; [5]): 11%
inhibition of growth at 1 ppm (Botrytis cinerea; [7]): 35%
inhibition of growth at 0.063 ppm (Pyricularia oryzae; [6]): 11%
inhibition of growth at 0.25 ppm (Pyricularia oryzae; [6]): 11%
inhibition of growth at 1 ppm (Pyricularia oryzae; [6]): 35%

Cc1cc(C2=NC(C)C(C)(C)Oc3c(F)cccc32)cnc1C(F)F (stereo not drawn) [Compound 1-3]
inhibition of growth at 1 ppm (Botrytis cinerea; [7]): 9%
inhibition of growth at 1 ppm (Pyricularia oryzae; [6]): 19%

Cc1cc(C2=N[C@@H](C)C(C)(C)Oc3ccccc32)cnc1C(F)F [Compound 1-4]
inhibition of growth at 1 ppm (Botrytis cinerea; [7]): 17%
inhibition of growth at 1 ppm (Pyricularia oryzae; [6]): 17%

Cc1cc(C2=N[C@H](C)C(C)(C)Oc3ccccc32)cnc1C(F)F [Compound 1-5]
inhibition of growth at 0.016 ppm (Septoria tritici; [2]): 0%
inhibition of growth at 0.063 ppm (Septoria tritici; [3]): 3%
inhibition of growth at 0.25 ppm (Septoria tritici; [4]): 1%

Cc1cc(C2=NC3(CC3)COc3c(F)cccc32)cnc1C(F)F [Compound 1-6]
inhibition of growth at 0.25 ppm (Septoria tritici; [4]): 0%
inhibition of growth at 1 ppm (Septoria tritici; [1]): 3%
inhibition of growth at 0.25 ppm (Botrytis cinerea; [5]): 5%
inhibition of growth at 1 ppm (Botrytis cinerea; [7]): 14%
inhibition of growth at 0.25 ppm (Pyricularia oryzae; [6]): 5%
inhibition of growth at 1 ppm (Pyricularia oryzae; [6]): 14%

Cc1cc(C2=NCC(C)(C)Oc3c(F)cccc32)cnc1C(F)F [Compound 1-7]
inhibition of growth at 0.016 ppm (Septoria tritici; [2]): 12%
inhibition of growth at 0.25 ppm (Botrytis cinerea; [5]): 0%
inhibition of growth at 0.25 ppm (Pyricularia oryzae; [6]): 0%

CC1COC(Cn2cncn2)(c2ccc(Oc3ccc(Cl)cc3)cc2Cl)O1 (stereo not drawn) [Difenoconazol, difenoconazole, reference compound]
inhibition of growth at 0.25 ppm (Botrytis cinerea; [5]): 26%
inhibition of growth at 0.25 ppm (Pyricularia oryzae; [6]): 26%

CNC(=O)/C(=N/OC)c1ccccc1COc1cc(C)ccc1C [Dimoxystrobin, dimoxystrobin, reference compound]
Observed efficacy (Botrytis cinerea; single active, 1 ppm, MTP, 405 nm, 7 days after inoculation): 16%
Observed efficacy (Pyricularia oryzae; 1 ppm): 16%

N#Cc1c[nH]cc1-c1cccc2c1OC(F)(F)O2 [Fludioxonil, fludioxonil, reference compound]
inhibition of growth at 0.25 ppm (Septoria tritici; Zymoseptoria tritici, 168 h, read-out: Observed efficacy): 26%

Cn1cc(C(=O)Nc2ccccc2-c2cc(F)c(F)c(F)c2)c(C(F)F)n1 [Fluxapyroxad, fluxapyroxad, reference compound]
Observed efficacy (Septoria tritici; [8]): 37%

CC(C)NC(=O)N1CC(=O)N(c2cc(Cl)cc(Cl)c2)C1=O [Iprodion, iprodione, reference compound]
inhibition of growth at 1 ppm (Botrytis cinerea; [7]): 60%
inhibition of growth at 1 ppm (Pyricularia oryzae; [6]): 60%

Cc1cc(OC(C)C)ccc1C(=O)C(C)(C)NC(=O)c1sccc1C [Isofetamid, isofetamid, reference compound]
Observed efficacy (Septoria tritici; single active, 0.25 ppm, MTP, 405 nm, 7 days after inoculation): 46%

CC(C)OC(=O)C(C(=O)OC(C)C)=C1SCCS1 [Isoprothiolan, isoprothiolane, reference compound]
inhibition of growth at 4 ppm (Botrytis cinerea; Botrytis cinerea, 168 h, read-out: Observed efficacy): 8%
inhibition of growth at 4 ppm (Pyricularia oryzae; [6]): 8%

N#Cc1ccccc1NC(=O)c1snc(Cl)c1Cl [Isotianil, isotianil, reference compound]
Observed efficacy (Botrytis cinerea; single active, 4 ppm, MTP, 405 nm, 7 days after inoculation): 6%
Observed efficacy (Pyricularia oryzae; 4 ppm): 6%

CC(O)(Cn1cncn1)c1ccc(Oc2ccc(Cl)cc2)cc1C(F)(F)F (stereo not drawn) [Mefentrifluconazol, mefentrifluconazole, reference compound]
Observed efficacy (Botrytis cinerea; [8]): 49%
Observed efficacy (Pyricularia oryzae; 0.063 ppm): 49%

OC(Cc1ccccc1Cl)(Cn1nc[nH]c1=S)C1(Cl)CC1 (stereo not drawn) [Prothioconazol, prothioconazole, reference compound]
inhibition of growth at 0.25 ppm (Septoria tritici; [4]): 42%
inhibition of growth at 4 ppm (Botrytis cinerea; [9]): 35%
inhibition of growth at 4 ppm (Pyricularia oryzae; [6]): 35%

COC(=O)NC(=S)Nc1ccccc1NC(=S)NC(=O)OC [Thiophanate methyl, thiophanate-methyl, reference compound]
inhibition of growth at 1 ppm (Septoria tritici; [1]): 10%
inhibition of growth at 1 ppm (Botrytis cinerea; [7]): 9%
inhibition of growth at 1 ppm (Pyricularia oryzae; [6]): 9%

Cc1ccc(NC(=O)c2snnc2C)cc1Cl [Tiadinil, tiadinil, reference compound]
inhibition of growth at 4 ppm (Septoria tritici; Zymoseptoria tritici, 168 h, single active, 4 ppm, MTP, 405 nm, 7 days after inoculation, read-out: Observed efficacy): 24%

Cc1cccc2sc3nncn3c12 [Tricyclazol, tricyclazole, reference compound]
inhibition of growth at 1 ppm (Septoria tritici; [1]): 14%
inhibition of growth at 4 ppm (Botrytis cinerea; [9]): 14%
inhibition of growth at 4 ppm (Pyricularia oryzae; [6]): 14%
